According to patent US9439424B2, “Synergistic weed control from applications of aminocyclopyrachlor and aminopyralid” (Dow AgroSciences LLC, priority 2012, dated 2016):
Several values for one entry are separate records, joined by “and”; a condition that tells them apart may be missing. Equal values may be shown once.

Tested on: kochia or mock cypress (Kochia scoparia, KCHSC)
Assay: Field trial, post-emergence foliar application, weed control rating 0-100%
Format: in vivo
Excerpt: The (a) aminocyclopyrachlor or an agriculturally acceptable salt or ester thereof is mixed with or applied in combination with (b) aminopyralid or an agriculturally acceptable salt or ester thereof in an amount sufficient to induce a synergistic herbicidal effect. […] As described in the Herbicide Handbook of the Weed Science Society of America, Ninth Edition, 2007, p. 429, “‘synergism’ [is] an interaction of two or more factors such that the effect when combined is greater than the predicted effect based on the response to each factor applied separately.” Synergistic in the herbicide context can mean that the use of (a) and (b) as defined above results in an increased weed control effect compared to the weed control effects that are possible with the use of (a) or (b) alone. In some embodiments, the damage or injury to the undesired vegetation caused by the compositions and methods disclosed herein is evaluated using a scale from 0% to 100%, when compared with the untreated control vegetation, wherein 0% indicates no damage to the undesired vegetation and 100% indicates complete destruction of the undesired vegetation. […] 22 (1967)
In the Colby equation, the value E corresponds to the effect (plant damage or injury) that is to be expected if the activity of the individual compounds is additive. If the observed effect is higher than the value E calculated according to the Colby equation, then a synergistic effect is present according to the Colby equation.
Field trials were conducted with applications made to established grassland with naturally occurring weed populations. The target plants were treated with postemergence foliar applications when they were just emerged to the three-leaf stage and 0.6 centimeters (cm) (0.25 inches (in)) tall. All treatments were applied using a randomized complete block trial design, with 3 replications per treatment.
Treatments consisted of aminocyclopyrachlor in acid form and aminopyralid-triisopropanolammonium, each in water and applied alone or in combination. Spray solutions were prepared using an appropriate amount of dilution to form a 1.7 L aqueous spray solution with active ingredients in single and two way combinations. Formulated compounds were applied to the plant material with a backpack sprayer equipped with 8002 nozzles calibrated to deliver 13.5 gallon/acre (127 L/ha) at a spray height of 18-20 in (43-50 cm) above average plant canopy.
The treated plants were kochia or mock cypress (Kochia scoparia, KCHSC). The treated plots and control plots were rated blind at various intervals after application. Ratings were based on a scale of 0-100%, as discussed above, wherein 0% indicates no damage to the undesired vegetation and 100% indicates complete destruction of the undesired vegetation
Colby's equation was used to determine the herbicidal effects expected from the mixtures, as described above. The results were measured at 93 days and 183 days after the first application of the compositions. […] The herbicide tank mix combinations tested, application rates and ratios employed, plant species tested, and results are given below.

Row | Structure (SMILES) | Mean % weed control (aminocyclopyrachlor alone 140 g ae/ha, 93 days after application) | Mean % weed control (aminocyclopyrachlor alone 140 g ae/ha, 183 days after application) | Mean % weed control (aminopyralid-triisopropanolammonium alone 70 g ae/ha, 93 days) | Mean % weed control (aminopyralid-triisopropanolammonium alone 70 g ae/ha, 183 days) | Mean % weed control (aminopyralid-triisopropanolammonium alone 120 g ae/ha, 93 days) | Mean % weed control (aminopyralid-triisopropanolammonium alone 120 g ae/ha, 183 days)
1 | Nc1nc(C2CC2)nc(C(=O)O)c1Cl [Aminocyclopyrachlor, 6-amino-5-chloro-2-cyclopropylpyrimidine-4-carboxylic acid] | 56.67% and 56.7% | 45% |  |  |  | 
2 | Nc1cc(Cl)nc(C(=O)O)c1Cl [Aminopyralid-triisopropanolammonium, aminopyralid-triisopropanolammonium] |  |  | 30% | 16.67% | 20% | 13.3%
